In brackets after ≈: the same amount, converted by molar mass. Read-outs that look alike come from different tables or passages of the source.
Tests used:
[1] = test system: Gross leukemia; assay: Oral activity against i.v. transplanted Gross leukemia (i.v. comparators); format: in vivo, C3H/Me mice; conditions: for T/C %, median survival time / Toxic deaths: Table 7
Excerpt: (§1) Results of studies performed in C3H/Me mice carrying i.v. transplanted Gross leukemia and treated i.v. the day after tumor transplantation, are reported in Table 6. […] The compounds Ib and Id were further investigated for oral activity on Gross leukemic transplanted i.v., in comparison with DNR, DX given i.v. and 4-dm DNR given oral route.
Oral activity of Ib and Id against Gross leukemia
^a days after transplantation
(§2) ^d data of two experiments (range)

[2] = test system: Gross leukemia; assay: Antitumor activity against i.v. transplanted Gross leukemia in C3H/Me mice, treatment i.v. on day 1; format: in vivo; conditions: for T/C, median survival time; % over untreated controls / Toxic deaths: Table 6
Excerpt: as §1
Antitumor activity against i.v. Gross leukemia.
Treatment i.v. on day 1.

[3] = test system: HeLa cells; assay: Colony inhibition test against HeLa cells in vitro (cloning efficiency), treatment for 24 hrs; format: cell-based; conditions: for activity at 0.0062 µg/mL: 6.2 ng/ml; for activity at 0.025 µg/mL: 25 ng/ml; for IC50: HeLa colony inhibition; for activity at 0.0125 µg/mL: 12.5 ng/ml
[4] = test system: ascitic P388 leukemia; assay: Antitumor activity against ascitic P388 leukemia in CDF-1 mice, treatment i.p. on day 1; format: in vivo
Procedure: The primary screening […] was carried out in CDF-1 mice bearing ascitic P388 leukemia (10^6 cells/mouse). Both IIa and IIc were suspended in 10%. Tween 80 and injected intraperitoneally.
Results of the primary screening "in vivo" carried out in CDF-1 mice bearing P388 ascitic leukemia and treated i.p. the day after tumor transplantation, are reported in Table 5.
Antitumor activity against ascitic P388 leukekemia.
(§3) Treatment i.p. on day 1.
^a median survival time; % over untreated controls
^b long term survivors (≥ 60 days)
^c evaluated on the basis of autoptic findings on dead mice
as §2
^e date of three experiments (range)
Antitumor activity of Ib and Id against ascitic P388
as §3

[5] = Homo sapiens, HeLa, Table 3, 24 hrs, read-out: No of colonies, % of untreated controls
[6] = Homo sapiens, HeLa, 24 h, read-out: No of colonies, % of untreated controls, Table 1, 24 hrs
[7] = Homo sapiens, HeLa, 24 h, read-out: No of colonies, % of untreated controls, Table 3, 24 hrs
[8] = Table 2, 4.4 mg/kg i.p. day 1, two experiments
[9] = Table 2, 6.6 mg/kg i.p. day 1, two (DNR) or three (DX) experiments
[10] = Table 2, 10 mg/kg i.p. day 1, three experiments
[11] = Table 5, 4.4 mg/kg i.p. day 1, DNR: two experiments

C[C@@H]1O[C@@H](O[C@H]2C[C@](O)(C(=O)CO)Cc3c(O)c4c(c(O)c32)C(=O)c2ccccc2C4=O)C[C@H](O)[C@H]1O [Compound Id, 4-demethoxy-7-0-(2,6-dideoxy-α-L-arabino-hexopyranosyl)-adriamycinone]
T/C %, median survival time ([1]; oral +1, 1.2 mg/kg): 171% | Toxic deaths ([1]; oral +1, 1.2 mg/kg): 0/9 | T/C %, median survival time ([1]; oral +1, 2.1 mg/kg): 185% | Toxic deaths ([1]; oral +1, 2.1 mg/kg): 0/8 | T/C %, median survival time ([1]; oral +1, 3.8 mg/kg): 214% | Toxic deaths ([1]; oral +1, 3.8 mg/kg): 3/8 | T/C %, median survival time ([1]; oral days 1,2,3, 0.48 mg/kg): 183% | Toxic deaths ([1]; oral days 1,2,3, 0.48 mg/kg): 0/10 | T/C %, median survival time ([1]; oral days 1,2,3, 0.62 mg/kg): 208% | Toxic deaths ([1]; oral days 1,2,3, 0.62 mg/kg): 0/10 | Toxic deaths ([1]; oral days 1,2,3, 0.8 mg/kg, two experiments): 2/20 | T/C %, median survival time ([1]; oral days 1,2,3, 0.8 mg/kg, two experiments (range)): 233-258% | antitumor activity given orally at day 1 ([1]; oral day 1, Gross leukemia, Id at the Mx TD vs DX i.v.): less active than DX i.v. | antitumor activity given orally days 1,2,3 ([1]; oral days 1,2,3, vs DX i.v.): higher than that of DX given i.v. | antitumor activity, comparison of the Mx TD ([2]; Gross leukemia, i.v. day 1): good antitumor activity, which is of the same order of magnitude as that of DX | toxicity and potency vs parent compounds ([2]; Gross leukemia, i.v. day 1): more toxic and more potent than the parent compounds | T/C, median survival time; % over untreated controls ([2]; 1.2 mg/kg i.v. day 1): 171% | Toxic deaths ([2]; 1.2 mg/kg i.v. day 1): 1/10 | T/C, median survival time; % over untreated controls ([2]; 2.16 mg/kg i.v. day 1): 200% | Toxic deaths ([2]; 2.16 mg/kg i.v. day 1): 1/10 | T/C, median survival time; % over untreated controls ([2]; 3.8 mg/kg i.v. day 1): 114% | Toxic deaths ([2]; 3.8 mg/kg i.v. day 1): 5/9 | cytotoxicity in comparison with DX ([3]; HeLa cells cloning efficiency): as cytotoxic as DX | activity at 0.0015 µg/mL ([3]; Homo sapiens, HeLa, Table 3, 1.5 ng/ml, 24 hrs, read-out: No of colonies, % of untreated controls): 106% | activity at 0.0062 µg/mL [3, 5]: 59% | activity at 0.025 µg/mL [3, 5]: 0% | activity at 0.1 µg/mL ([3]; Homo sapiens, HeLa, Table 3, 100 ng/ml, 24 hrs, read-out: No of colonies, % of untreated controls): 0% | IC50 ([3]; Homo sapiens, Table 3, 24 hrs, read-out: ID50 (the source's name)): ~7 ng/mL (≈ 0.0136 µM) | LTS, long term survivors (≥ 60 days) ([4]; Table 5, 1.12 mg/kg i.p. day 1): 0/10 | T/C, median survival time; % over untreated controls ([4]; Table 5, 1.12 mg/kg i.p. day 1): 170% | Toxic deaths (autoptic findings on dead mice) ([4]; Table 5, 1.12 mg/kg i.p. day 1): 0/10 | LTS, long term survivors (≥ 60 days) ([4]; Table 5, 1.68 mg/kg i.p. day 1): 0/10 | T/C, median survival time; % over untreated controls ([4]; Table 5, 1.68 mg/kg i.p. day 1): 185% | Toxic deaths (autoptic findings on dead mice) ([4]; Table 5, 1.68 mg/kg i.p. day 1): 0/10 | LTS, long term survivors (≥ 60 days) ([4]; Table 5, 2.53 mg/kg i.p. day 1): 1/10 | T/C, median survival time; % over untreated controls ([4]; Table 5, 2.53 mg/kg i.p. day 1): 230% | Toxic deaths (autoptic findings on dead mice) ([4]; Table 5, 2.53 mg/kg i.p. day 1): 2/10 | times more potent than DX ([4]; ascitic P388, i.p. day 1): about 5 times | antileukemia activity against P388 leukemia ([4]; vs DX): good but lower than that of DX

COc1cccc2c1C(=O)c1c(O)c3c(c(O)c1C2=O)C[C@@](O)(C(=O)CO)C[C@@H]3O[C@H]1C[C@H](N)[C@H](O)[C@H](C)O1 [DX, doxorubicin, reference compound]
Toxic deaths ([1]; i.v. +1, 10 mg/kg, two experiments): 1/20 | T/C %, median survival time ([1]; i.v. +1, 10 mg/kg, two experiments (range)): 171-171% | Toxic deaths ([1]; i.v. +1, 13 mg/kg, two experiments): 1/20 | T/C %, median survival time ([1]; i.v. +1, 13 mg/kg, two experiments (range)): 200-200% | Toxic deaths ([1]; i.v. +1, 16.9 mg/kg, two experiments): 3/13 | T/C %, median survival time ([1]; i.v. +1, 16.9 mg/kg, two experiments (range)): 200-207% | T/C, median survival time; % over untreated controls ([2]; 10 mg/kg i.v. day 1): 171% | Toxic deaths ([2]; 10 mg/kg i.v. day 1): 0/10 | T/C, median survival time; % over untreated controls ([2]; 13 mg/kg i.v. day 1): 200% | Toxic deaths ([2]; 13 mg/kg i.v. day 1): 0/10 | T/C, median survival time; % over untreated controls ([2]; 16.9 mg/kg i.v. day 1): 207% | Toxic deaths ([2]; 16.9 mg/kg i.v. day 1): 3/10 | IC50 ([3]; Homo sapiens, HeLa, 24 h, read-out: ID50, Table 1, 24 hrs): ~10 ng/mL (≈ 0.0184 µM) | IC50 ([3]; Homo sapiens, HeLa, 24 h, read-out: ID50, Table 3, 24 hrs): ~7.5 ng/mL (≈ 0.0138 µM) | activity at 0.0062 µg/mL [3, 6]: 69% | activity at 0.0125 µg/mL [3, 6]: 40% | activity at 0.025 µg/mL [3, 6]: 24% | activity at 0.0062 µg/mL [3, 7]: 59% | activity at 0.0125 µg/mL [3, 7]: 28% | activity at 0.025 µg/mL [3, 7]: 0% | T/C, median survival time; % over untreated controls ([4]; Table 2, 4.4 mg/kg i.p. day 1, data of two experiments (range)): 220-227% | LTS, long term survivors (≥ 60 days) [4, 8]: 2/18 | Toxic deaths (autoptic findings on dead mice) [4, 8]: 0/18 | T/C, median survival time; % over untreated controls ([4]; Table 2, 6.6 mg/kg i.p. day 1, range of two (DNR) or three (DX) experiments): 227-305% | LTS, long term survivors (≥ 60 days) [4, 9]: 2/26 | Toxic deaths (autoptic findings on dead mice) [4, 9]: 0/26 | LTS, long term survivors (≥ 60 days) [4, 10]: 7/26 | Toxic deaths (autoptic findings on dead mice) [4, 10]: 3/26 | LTS, long term survivors (≥ 60 days) [4, 11]: 1/10 | Toxic deaths (autoptic findings on dead mice) [4, 11]: 0/10 | T/C, median survival time; % over untreated controls ([4]; Table 5, 4.4 mg/kg i.p. day 1, DNR: two experiments (range)): 220% | LTS, long term survivors (≥ 60 days) ([4]; Table 5, 6.6 mg/kg i.p. day 1): 0/10 | T/C, median survival time; % over untreated controls ([4]; Table 5, 6.6 mg/kg i.p. day 1): 305% | Toxic deaths (autoptic findings on dead mice) ([4]; Table 5, 6.6 mg/kg i.p. day 1): 0/10 | LTS, long term survivors (≥ 60 days) ([4]; Table 5, 10 mg/kg i.p. day 1): 5/10 | T/C, median survival time; % over untreated controls ([4]; Table 5, 10 mg/kg i.p. day 1): > 610% | Toxic deaths (autoptic findings on dead mice) ([4]; Table 5, 10 mg/kg i.p. day 1): 0/10

From patent US4522815A, “Anthracycline glycosides” (priority 1982, dated 1985)
